# Test results as given in patent US20260092071A1, “COMPOUNDS AND COMPOSITIONS AS SMARCA2/4 DEGRADERS AND USES THEREOF” (REGENTS OF THE UNIVERSITY OF MICHIGAN, priority 2022, published 2026).
# Like-named read-outs stand apart in the source and are kept apart here.
# How the values were obtained:
# SMARCA2 = SMARCA2 (Homo sapiens, UniProt P51531); test: HiBit assay in engineered HT1080 CRISPR knock-in cell, 6 hrs (B series), SMARCA2; format: cell-based; settings: 6 hrs incubation; for DC50: HT1080 CRISPR knock-in cells, read-out: SMARC A2 HT1080 HiBit DC50; for Dmax: HT-1080, HT1080 CRISPR knock-in cells, read-out: SMARC A2 HT1080 HiBit Dmax (%)
# Protocol: (§1) The HiBit assay was performed using engineered HT1080 CRISPR knock-in cell utilizing the Nano-Glo HiBiT Lytic Detection System from Promega, Cat #N3040. Compounds were transferred, 25 nL DMSO or test compounds (final DMSO @ 0.1%) to intermediate plates (Corning3570) using ECHO550. Cells were seeded onto compounds at 2000 cells/25 μL/well and incubated for 6 hrs in a tissue culture incubator at 37° C. and 5% CO2. The LgBiT Protein was diluted at 1:100 and the Nano-Glo® HiBIT Lytic Substrate 1:50 into an appropriate volume of room temperature using the Nano-Glo® HiBiT Lytic Buffer. At the end of compound incubation time, 15 ul of the detection reagent was added to each well (without LgBiT for negative control wells) using the Thermo Scientific multidrop combi. The plate was shaken for 10 mins at RT using Combi. After briefly centrifugation (2000 rpm 1 mins), plate was read on Envision (Ultrasensitive luminescence model).
# SMARCA4 = SMARCA4 (Homo sapiens, UniProt P51532); test: HiBit assay in engineered HT1080 CRISPR knock-in cell, 6 hrs (B series), SMARCA4; format: cell-based; settings: for DC50: HT1080 CRISPR knock-in cells, read-out: SMARC A4 HT1080 HiBit DC50
# Protocol: as §1
# [1] = HT-1080, HT1080 CRISPR knock-in cells, 6 hrs incubation, read-out: SMARC A4 HT1080 HiBit Dmax(%)
# Chain of SMARCA2 (P51531 whole entry): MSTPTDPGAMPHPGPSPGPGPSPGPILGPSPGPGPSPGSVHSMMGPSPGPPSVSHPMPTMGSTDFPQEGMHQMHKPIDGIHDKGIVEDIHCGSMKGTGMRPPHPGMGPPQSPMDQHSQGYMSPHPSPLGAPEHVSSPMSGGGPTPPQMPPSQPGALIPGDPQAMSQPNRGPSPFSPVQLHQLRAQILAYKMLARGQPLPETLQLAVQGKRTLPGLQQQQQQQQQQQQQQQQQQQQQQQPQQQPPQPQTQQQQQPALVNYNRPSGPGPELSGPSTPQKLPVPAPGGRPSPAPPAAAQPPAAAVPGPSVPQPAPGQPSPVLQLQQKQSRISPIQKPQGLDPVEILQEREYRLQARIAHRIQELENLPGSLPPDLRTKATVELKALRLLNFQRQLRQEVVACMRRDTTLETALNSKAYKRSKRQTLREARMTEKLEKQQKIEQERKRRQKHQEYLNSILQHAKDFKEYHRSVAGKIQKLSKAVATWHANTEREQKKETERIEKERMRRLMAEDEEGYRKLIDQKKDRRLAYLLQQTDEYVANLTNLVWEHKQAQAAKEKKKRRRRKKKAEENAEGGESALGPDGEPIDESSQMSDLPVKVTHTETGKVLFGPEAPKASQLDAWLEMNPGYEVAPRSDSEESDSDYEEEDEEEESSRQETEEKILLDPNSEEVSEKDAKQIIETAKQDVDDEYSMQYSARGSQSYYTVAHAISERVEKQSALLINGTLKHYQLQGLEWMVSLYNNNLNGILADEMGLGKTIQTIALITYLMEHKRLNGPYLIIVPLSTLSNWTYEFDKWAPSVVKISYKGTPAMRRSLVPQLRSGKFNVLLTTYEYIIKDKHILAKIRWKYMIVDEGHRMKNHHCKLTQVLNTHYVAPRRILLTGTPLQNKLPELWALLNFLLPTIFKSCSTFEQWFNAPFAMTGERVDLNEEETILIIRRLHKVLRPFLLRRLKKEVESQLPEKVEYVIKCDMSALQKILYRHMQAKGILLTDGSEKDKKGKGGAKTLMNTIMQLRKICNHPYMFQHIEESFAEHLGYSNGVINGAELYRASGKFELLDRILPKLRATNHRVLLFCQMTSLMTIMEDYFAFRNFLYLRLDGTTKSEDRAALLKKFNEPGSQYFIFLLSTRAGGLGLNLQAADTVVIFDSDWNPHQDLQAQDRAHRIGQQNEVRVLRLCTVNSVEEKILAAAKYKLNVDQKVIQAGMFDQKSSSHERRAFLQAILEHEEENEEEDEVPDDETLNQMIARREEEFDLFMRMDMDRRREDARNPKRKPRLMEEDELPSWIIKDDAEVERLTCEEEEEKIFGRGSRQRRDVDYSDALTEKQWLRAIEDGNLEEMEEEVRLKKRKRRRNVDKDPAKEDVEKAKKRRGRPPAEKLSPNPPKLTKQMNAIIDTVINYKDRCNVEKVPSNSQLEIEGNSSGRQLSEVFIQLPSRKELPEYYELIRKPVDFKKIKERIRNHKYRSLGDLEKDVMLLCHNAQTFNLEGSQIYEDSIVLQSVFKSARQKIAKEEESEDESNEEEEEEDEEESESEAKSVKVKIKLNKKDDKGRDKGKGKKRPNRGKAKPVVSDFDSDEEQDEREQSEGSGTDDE
# Chain of SMARCA4 (P51532 whole entry): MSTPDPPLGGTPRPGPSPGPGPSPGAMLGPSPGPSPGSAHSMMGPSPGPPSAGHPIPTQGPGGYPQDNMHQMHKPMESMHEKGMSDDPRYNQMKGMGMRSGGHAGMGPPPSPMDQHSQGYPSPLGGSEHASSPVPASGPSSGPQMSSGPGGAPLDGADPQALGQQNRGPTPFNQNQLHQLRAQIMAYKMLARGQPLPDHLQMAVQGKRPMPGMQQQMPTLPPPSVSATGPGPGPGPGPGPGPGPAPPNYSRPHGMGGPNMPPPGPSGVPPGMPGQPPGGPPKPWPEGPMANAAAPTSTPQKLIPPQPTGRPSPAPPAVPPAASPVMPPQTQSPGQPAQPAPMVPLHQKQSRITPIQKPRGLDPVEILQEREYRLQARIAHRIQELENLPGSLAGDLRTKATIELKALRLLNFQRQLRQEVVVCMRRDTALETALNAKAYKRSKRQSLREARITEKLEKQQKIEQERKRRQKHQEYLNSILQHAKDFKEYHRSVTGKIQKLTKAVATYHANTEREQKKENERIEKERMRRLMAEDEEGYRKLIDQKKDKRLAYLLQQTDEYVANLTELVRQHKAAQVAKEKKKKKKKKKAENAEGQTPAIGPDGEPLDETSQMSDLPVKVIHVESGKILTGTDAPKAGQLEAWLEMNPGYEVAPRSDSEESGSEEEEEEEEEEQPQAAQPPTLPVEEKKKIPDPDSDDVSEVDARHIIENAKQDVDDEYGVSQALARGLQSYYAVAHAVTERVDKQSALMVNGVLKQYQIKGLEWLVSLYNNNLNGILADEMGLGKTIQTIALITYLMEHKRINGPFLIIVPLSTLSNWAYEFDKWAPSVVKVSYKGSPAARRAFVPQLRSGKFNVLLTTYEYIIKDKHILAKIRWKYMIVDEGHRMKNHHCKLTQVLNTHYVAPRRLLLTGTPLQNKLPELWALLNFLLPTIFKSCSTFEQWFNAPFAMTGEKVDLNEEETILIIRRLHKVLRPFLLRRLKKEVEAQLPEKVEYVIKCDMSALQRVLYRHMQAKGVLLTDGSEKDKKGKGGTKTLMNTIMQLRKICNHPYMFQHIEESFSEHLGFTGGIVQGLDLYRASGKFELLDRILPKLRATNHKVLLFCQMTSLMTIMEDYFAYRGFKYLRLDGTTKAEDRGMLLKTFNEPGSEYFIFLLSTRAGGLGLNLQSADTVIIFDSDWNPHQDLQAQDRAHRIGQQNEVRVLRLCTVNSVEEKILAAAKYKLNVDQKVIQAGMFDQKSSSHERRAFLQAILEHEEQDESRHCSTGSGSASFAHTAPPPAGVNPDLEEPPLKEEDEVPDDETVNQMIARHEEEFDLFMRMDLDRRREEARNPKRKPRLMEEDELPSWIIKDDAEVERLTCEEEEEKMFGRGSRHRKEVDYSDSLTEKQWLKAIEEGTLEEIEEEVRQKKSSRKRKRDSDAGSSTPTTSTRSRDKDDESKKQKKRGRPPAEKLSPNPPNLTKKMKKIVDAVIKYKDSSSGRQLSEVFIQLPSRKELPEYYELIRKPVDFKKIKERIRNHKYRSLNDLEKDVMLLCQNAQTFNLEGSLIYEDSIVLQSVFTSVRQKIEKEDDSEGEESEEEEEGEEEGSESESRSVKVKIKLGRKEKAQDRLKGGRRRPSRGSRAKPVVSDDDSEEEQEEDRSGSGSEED
Structure (SMILES),DC50 (SMARCA2) [nM],Dmax (SMARCA2) [%],DC50 (SMARCA4; 6 hrs incubation) [nM],"Dmax (SMARCA4; HT-1080, read-out: SMARC A4 HT1080 HiBit Dmax(%), HT1080 CRISPR knock-in cells, 6 hrs incubation) [%]",Dmax (SMARCA4; [1]) [%]
"Cc1ncsc1-c1ccc([C@H](C)NC(=O)[C@@H]2C[C@@H](O)CN2C(=O)[C@@H](NC(=O)[C@H]2CC[C@H](Cn3cc(-c4ccc5c(c4)C(C)(C)c4nc(=O)c6c(Cl)cccc6n4-5)cn3)CC2)C(C)(C)C)cc1 [Compound B48, (2S,4R)-1-((S)-2-((1r,4S)-4-((4-(4-chloro-7,7-dimethyl-5-oxo-5,7-dihydroindolo[1,2-a]quinazolin-9-yl)-1H-pyrazol-1-yl)methyl)cyclohexane-1-carboxamido)-3,3-dimethylbutanoyl)-4-hydroxy-N—((S)-1-(4-(4-methylthiazol-5-yl)phenyl)ethyl)pyrrolidine-2-carboxamide]",< 100,70 to 90,100 to 500,,< 50
"Cc1ncsc1-c1ccc([C@H](CC(=O)NCC2CCC(N3CCC(c4ccc5c(c4)-n4c(nc(=O)c6c(Cl)cccc64)C5(C)C)CC3)CC2)NC(=O)[C@@H]2C[C@@H](O)CN2C(=O)[C@@H](NC(=O)C2(F)CC2)C(C)(C)C)cc1 (stereo partly drawn) [Compound B53, (2S,4R)-N-((S)-3-(((4-(4-(4-chloro-7,7-dimethyl-5-oxo-5,7-dihydroindolo[1,2-a]quinazolin-10-yl)piperidin-1-yl)cyclohexyl)methyl)amino)-1-(4-(4-methylthiazol-5-yl)phenyl)-3-oxopropyl)-1-((S)-2-(1-fluorocyclopropane-1-carboxamido)-3,3-dimethylbutanoyl)-4-hydroxypyrrolidine-2-carboxamide]",100 to 500,70 to 90,100 to 500,,50 to 69
"Cc1ncsc1-c1ccc([C@H](C)NC(=O)[C@@H]2C[C@@H](O)CN2C(=O)[C@H](c2cc(N3CCC(C(=O)N4CCC(c5ccc6c(c5)C(C)(C)c5nc(=O)c7c(Cl)cccc7n5-6)CC4)CC3)no2)C(C)C)cc1 [Compound B89, (2S,4R)-1-(2-(3-(4-(4-(4-chloro-7,7-dimethyl-5-oxo-5,7-dihydroindolo[1,2-a]quinazolin-9-yl)piperidine-1-carbonyl)piperidin-1-yl)isoxazol-5-yl)-3-methylbutanoyl)-4-hydroxy-N—((S)-1-(4-(4-methylthiazol-5-yl)phenyl)ethyl)pyrrolidine-2-carboxamide]",< 100,> 90,100 to 500,,> 90
"C=C[C@H](NC(=O)[C@@H]1C[C@@H](O)CN1C(=O)[C@@H](NC(=O)[C@H]1CC[C@H](CN2CCC(c3ccc4c(c3)C(C)(C)c3nc(=O)c5c(Cl)cccc5n3-4)CC2)CC1)C(C)(C)C)c1ccc(-c2scnc2C)cc1 [Compound B79, (2S,4R)-1-((S)-2-((11,4S)-4-((4-(4-chloro-7,7-dimethyl-5-oxo-5,7-dihydroindolo[1,2-a]quinazolin-9-yl)piperidin-1-yl)methyl)cyclohexane-1-carboxamido)-3,3-dimethylbutanoyl)-4-hydroxy-N-((S)-1-(4-(4-methylthiazol-5-yl)phenyl)allyl)pyrrolidine-2-carboxamide]",< 100,70 to 90,100 to 500,,< 50
"Cc1ncoc1-c1ccc([C@H](C)NC(=O)[C@@H]2C[C@@H](O)CN2C(=O)[C@@H](n2cc([C@H]3CC[C@H](CN4CCN(c5ccc6c(c5)-n5c(nc(=O)c7c(Cl)cccc75)C6(C)C)CC4)CC3)nn2)C(C)(C)C)cc1 [Compound B126, (2S,4R)-1-((S)-2-(4-((1r,4S)-4-((4-(4-chloro-7,7-dimethyl-5-oxo-5,7-dihydroindolo[1,2-a]quinazolin-10-yl)piperazin-1-yl)methyl)cyclohexyl)-1H-1,2,3-triazol-1-yl)-3,3-dimethylbutanoyl)-4-hydroxy-N-((S)-1-(4-(4-methyloxazol-5-yl)phenyl)ethyl)pyrrolidine-2-carboxamide]",< 100,> 90,< 100,,50 to 69

# Continued, values first:
DC50 (SMARCA2) [nM],Dmax (SMARCA2) [%],DC50 (SMARCA4; 6 hrs incubation) [nM],"Dmax (SMARCA4; HT-1080, read-out: SMARC A4 HT1080 HiBit Dmax(%), HT1080 CRISPR knock-in cells, 6 hrs incubation) [%]",Dmax (SMARCA4; [1]) [%],Structure (SMILES)
< 100,> 90,< 100,> 90,,"Cc1ncsc1-c1ccc([C@H](CN2CCOCC2)NC(=O)[C@@H]2C[C@@H](O)CN2C(=O)[C@@H](c2cc(O[C@H]3CC[C@H](CN4CCC(c5ccc6c(c5)-n5c(nc(=O)c7c(Cl)cccc75)C6(C)C)CC4)CC3)no2)C(C)C)cc1 [Compound B157, (2S,4R)-1-((R)-2-(3-(((1r,4R)-4-((4-(4-chloro-7,7-dimethyl-5-oxo-5,7-dihydroindolo[1,2-a]quinazolin-10-yl)piperidin-1-yl)methyl)cyclohexyl)oxy)isoxazol-5-yl)-3-methylbutanoyl)-4-hydroxy-N-((R)-1-(4-(4-methylthiazol-5-yl)phenyl)-2-morpholinoethyl)pyrrolidine-2-carboxamide]"
< 100,> 90,< 100,,70 to 90,"Cc1ncsc1-c1ccc([C@H](C)NC(=O)[C@@H]2C[C@@H](O)CN2C(=O)[C@@H](n2cc([C@H]3CC[C@H](CN4CCC(c5ccc6c(c5)-n5c(nc(=O)c7c(Cl)cccc75)C6(C)C)CC4)CC3)nn2)C(C)(C)C)cc1 [Compound B51, (2S,4R)-1-((S)-2-(4-((1r,4S)-4-((4-(4-chloro-7,7-dimethyl-5-oxo-5,7-dihydroindolo[1,2-a]quinazolin-10-yl)piperidin-1-yl)methyl)cyclohexyl)-1H-1,2,3-triazol-1-yl)-3,3-dimethylbutanoyl)-4-hydroxy-N-((S)-1-(4-(4-methylthiazol-5-yl)phenyl)ethyl)pyrrolidine-2-carboxamide]"
< 100,> 90,< 100,,> 90,"Cc1ncsc1-c1ccc([C@H](C)NC(=O)[C@@H]2C[C@@H](O)CN2C(=O)[C@@H](c2cc(OCCCN3CCC(c4ccc5c(c4)C(C)(C)c4nc(=O)c6c(Cl)cccc6n4-5)CC3)no2)C(C)C)cc1 [Compound B11, (2S,4R)-1-((R)-2-(3-(3-(4-(4-chloro-7,7-dimethyl-5-oxo-5,7-dihydroindolo[1,2-a]quinazolin-9-yl)piperidin-1-yl)propoxy)isoxazol-5-yl)-3-methylbutanoyl)-4-hydroxy-N-((S)-1-(4-(4-methylthiazol-5-yl)phenyl)ethyl)pyrrolidine-2-carboxamide]"
< 100,> 90,< 100,,50 to 69,"CC(=O)c1ccc([C@H](C)NC(=O)[C@@H]2C[C@@H](O)CN2C(=O)[C@H](C(C)C)n2cc([C@H]3CC[C@H](CN4CCC(c5ccc6c(c5)-n5c(nc(=O)c7c(Cl)cccc75)C6(C)C)CC4)CC3)nn2)cc1 [Compound B134, (2S,4R)-N-((S)-1-(4-acetylphenyl)ethyl)-1-((S)-2-(4-((1r,4S)-4-((4-(4-chloro-7,7-dimethyl-5-oxo-5,7-dihydroindolo[1,2-a]quinazolin-10-yl)piperidin-1-yl)methyl)cyclohexyl)-1H-1,2,3-triazol-1-yl)-3-methylbutanoyl)-4-hydroxypyrrolidine-2-carboxamide]"
< 100,> 90,< 100,,70 to 90,"Cc1ncsc1-c1ccc([C@H](C)NC(=O)[C@@H]2C[C@@H](O)CN2C(=O)[C@@H](NC(=O)C23CC(CN4CCC(c5ccc6c(c5)C(C)(C)c5nc(=O)c7c(Cl)cccc7n5-6)CC4)(C2)C3)C(C)(C)C)cc1 [Compound B23, (2S,4R)-1-((S)-2-(3-((4-(4-chloro-7,7-dimethyl-5-oxo-5,7-dihydroindolo[1,2-a]quinazolin-9-yl)piperidin-1-yl)methyl)bicyclo[1.1.1]pentane-1-carboxamido)-3,3-dimethylbutanoyl)-4-hydroxy-N-((S)-1-(4-(4-methylthiazol-5-yl)phenyl)ethyl)pyrrolidine-2-carboxamide]"
